In patent publication US11541059B2, “Heterocyclic compounds and uses thereof” (Infinity Pharmaceuticals, Inc., priority 2014, dated 2023):

How the values were obtained:
[1] = tested on: differentiation of myeloid cells into M2 TAMs; assay: Murine M2 TAM differentiation (ARG1); format: cell-based, mouse; conditions: FIG. 22A, 22B
From the text: High ARG1 (Arginase-1) levels indicate that myeloid cells are differentiating into M2 macrophages, so lower ARG1 levels relative to a control indicate interference with differentiation into M2 macrophages. Expression of Arginase-1 depletes the tumor microenvironment of arginine, thereby promoting T cell death and NK cell inhibition. Schmid et. al., Proceedings: AACR 103rd Annual Meeting 2012, Cancer Research: Apr. 15, 2012; Volume 72, Issue 8, Supplement 1. […] M2 TAMs promote cancer cell survival (FIG. 23).

LLC tumor = assay: Lewis Lung Carcinoma (LLC tumor brei) model; format: in vivo, mouse; conditions: FIG. 25A, 25B
Procedure: Compound BB was tested in the Lewis Lung Carcinoma model, which is known in the art and briefly described hereinabove.
LLC tumor brei model was prepared and injected subcutaneously into a mouse in the hind flank region. The tumor brei was prepared as follows. LL2-Luc tumor cells were grown in culture in DMEM+10% FBS. Cells were implanted @ 1×10^6 cells/100 uL SC in the flank of C57 Albino mice (male) When tumors reached 1000 mm3, tumors were harvested. Only the white, living tissue was harvested. Any material containing visable blood or necrotic area was isolated away from the tumor tissue. Tumor tissue was placed in a Dounce tissue homoginized with 5 mLs of warm DMEM (no FBS). About 1-2 grams of tumor tissue was collected, homogenized, pooled into 50 mL falcon tube, and cells were counted. Cells were spinned @ […], and FBS was pooled off Cells were resuspended to equal 1×10^7 cells/mL with sterile PBS. 100 uL of cells/mouse SC at the hind flank region were implanted. This process was repeated one more time before conducting brei tumor efficacy study.

[2] = tested on: bone marrow cells differentiating into MDSCs (VEGF, ARG1); assay: Myeloid Derived Suppressor Cell differentiation assay; format: cell-based; conditions: FIG. 24A, 24B
Procedure: A similar experiment was performed on bone marrow cells differentiating into MDSCs.

[3] = tested on: spleen T cell proliferation; assay: Ex vivo T-cell proliferation assay with tumor-derived cells; format: cell-based, mouse
[4] = Target organ toxicity (TOT) study, 10 days oral; format: in vivo; conditions: rat
Procedure: A target organ toxicity (TOT) study was performed in rats. […] This study assessed clinical observations/mortality, body weights, clinical pathology, toxicokinetics, and histopathology of select tissues. The tissues studied were: Adrenal gland, Bone marrow (femur), Brain, Small Intestine (including GALT), Heart, Large Intestine, Kidney, Stomach, Liver, Pancreas, Spleen, Testis, and Thymus. Doses were selected based on repeat-dose tolerability study, PK and plasma protein binding, and cellular IC50s for PI3K isoforms. The doses selected were: high-dose: 50 mg/kg/day, expected to inhibit α, β, δ, and γ PI3K isoforms; Mid-high dose: 20 mg/kg/day, expected to inhibit β, δ, and γ PI3K isoforms; Mid-low dose: 7.5 mg/kg, expected to inhibit γ PI3K isoform only; and Low-dose: 1 mg/kg/day, expected to inhibit γ PI3K isoform only.

[5] = tested on: monocytic iMCs in CT26 subcutaneous tumors; assay: Flow cytometry of tumor-associated myeloid cells, CT26; format: in vivo, mouse; conditions: FIG. 38B
Procedure: (§1) Flow cytometry was performed to obtain a more extensive cellular subset analysis. In particular, the study examined T cell vs. Myeloid cells, Myeloid cell subsets, Regulatory vs. effector T cells, and Tumor markers vs. WBC (e.g., PD-L1 expression on tumor).
(§2) Different populations of tumor-associated myeloid cells can be identified by flow cytometry, e.g., monocytic immature myeloid cells (iMC),Granulocytic iMCs/Neutrophils, Tumor Associated Macrophages (TAMs), and Granulocytic MDSCs. The different populations, and panels for detecting MDSCs, are described in Cancer Discovery 2011; 1:54-67. Tumors may vary in their myeloid cell composition.

[6] = tested on: collagen induced arthritis; assay: Rat collagen induced arthritis (CIA) model; conditions: FIG. 1
tumor growth = assay: Tumor growth with Compound BB alone or co-administered with 5-FU (FIG. 35); format: in vivo
MC38 tumors = assay: MC38 colon cancer model; format: in vivo, mouse
Procedure: In this model, a syngeneic colon cancer cell line is run subcutaneously. The experimental setup was as follows.
Female CR C57BL/6 mice were set up with 1×10^6 MC38 tumor cells in 0% Matrigel sc in flank. The cell injection volume was 0.05 ml per mouse. When tumors reached an average size of […], a pair match was made and treatment began. The tumor was measured by caliper biweekly.
The dosing volume was 5 mL/kg.
For all animals, blood was collected by terminal cardiac puncture under isoflurane anesthesia. The blood was processed for plasma. In addition, tumor samples were collected.
At study end, tumors were isolated, fixed in 10% neutral buffered formalin and embedded in paraffin for histologic analysis. Tumor sections from both vehicle and Compound BB monotherapy were cut for immunohistochemical analysis. T-cells within the tumor sections were identified utilizing a CD3-specific antibody via automated immunohistochemistry equipment (Ventana). Once stained, slides were digitalized via Aperio slide scanning equipment. Next, stained tumor sections were quantified via Definians software to assess the percentage of CD3 positive cells within each tumor. […] A trendline was added to the vehicle and Compound BB monotherapy graphs.

CT26 tumors = assay: CT26 colon cancer allograft model; format: in vivo, mouse; conditions: FIG. 28
[7] = tested on: TAMs / CD206 in LLC tumor brei; assay: Flow cytometry of tumor-associated myeloid cells, LLC tumor brei; format: in vivo, mouse
Procedure: as §1, §2

Lewis Lung Carcinoma = Lewis Lung Carcinoma model / LLC tumor brei model; format: in vivo, mouse

**Q.** Which “M2 TAM differentiation (ARG1 levels)” value [1] does the source give for `C[C@H](NC(=O)c1c(N)nn2cccnc12)c1cc2cccc(C#Cc3cnn(C)c3)c2c(=O)n1-c1ccccc1` [Compound BB] here?
**A.** inhibited M2 TAM differentiation much more effectively than PI3K-δ inhibitor

**Q.** What about the “Tumor growth, Lewis Lung Carcinoma model” value (LLC tumor) of the same compound?
**A.** demonstrated single agent activity

**Q.** What about the “VEGF and ARG1 in MDSC differentiation assay” value [2] of the same compound?
**A.** suppressed both VEGF (FIG. 24A) and ARG1 (FIG. 24B)

**Q.** What about the immune suppressive environment [3] of the same compound?
**A.** reduces

**Q.** What about the “Decrease in body weights compared to vehicle” value ([4]; high dose animals (50 mg/kg/day)) of the same compound?
**A.** 5-8%

**Q.** And the “Histopathology, thymus” value ([4]; males ≥7.5 mg/kg/day, females 50 mg/kg/day)?
**A.** minimal/mild lymphoid depletion

**Q.** And the “Mortality and clinical signs” value ([4]; oral 10 days, any dose level)?
**A.** No mortality or clinical signs were observed

**Q.** What about the “Tolerability, TOT study” value ([4]; oral, 1, 7.5, 20, 50 mg/kg/day) of the same compound?
**A.** well-tolerated for 10 days

**Q.** What about the “Histopathology, spleen” value ([4]; primarily at doses ≥20 mg/kg/day) of the same compound?
**A.** minimal/mild lymphoid depletion of the marginal zone and periarteriolar lymphoid sheaths (PALS)

**Q.** And the “Monocytic iMCs” value [5]?
**A.** monocytic iMCs were decreased

**Q.** And the “Mean ankle diameter, day 9 to day 17” value [6]?
**A.** has therapeutic effects

**Q.** What about the tumor growth (tumor growth; Compound BB alone (FIG. 35)) of the same compound?
**A.** reduction in tumor growth

**Q.** And the tumor growth (tumor growth; co-administration of Compound BB and 5-FU (FIG. 35))?
**A.** further reduction

**Q.** And the “Intratumoral CD3+ T cells” value (MC38 tumors; MC38 tumors vs vehicle, FIG. 30)?
**A.** significantly more intratumoral CD3+ T cells

**Q.** And the “Tumor growth, MC38 colon cancer model” value (MC38 tumors; monotherapy, FIG. 29A)?
**A.** significantly inhibited tumor growth

**Q.** What about the “MDSC expansion after cyclophosphamide treatment” value (CT26 tumors) of the same compound?
**A.** expansion is decreased

**Q.** What about the “Infiltrating TAMs” value ([7]; FIG. 38A) of the same compound?
**A.** the number of infiltrating TAMs was decreased

**Q.** What about the “CD206 staining (M2 polarized suppressive macrophages)” value ([7]; FIG. 39) of the same compound?
**A.** CD206 staining was reduced

**Q.** What about the “CD206+ M2 polarized suppressive macrophages” value (Lewis Lung Carcinoma) of the same compound?
**A.** reduces

**Q.** And the TAMs (Lewis Lung Carcinoma)?
**A.** decreased
